Here are results for one molecule from US20050261246A1, “Methods for treating inflammatory and autoimmune diseases” (priority 2004, published 2005).

Assay [1] has as its system TNFα and MCP-1 production. As to the kind of experiment: In vivo air-pouch assay, LPS-stimulated cytokine production. The following applies: SNS 5 mg/kg then LPS 1 μg/ml, vs LPS-stimulated controls. Details: species or system mouse. The method, then: The reduction of TNF-alpha (P=0.04) and MCP-1 (P=0.03) in SNS-treated mice upon LPS stimulation. PBS_PBS: PBS followed by PBS; PBS_LPS: PBS followed by LPS (1 μg/ml); SNS_PBS: SNS followed by PBS; SNS_LPS: SNS (5 mg/kg) followed by LPS (1 μg/ml). Results are derived from three independent experiments. Statistical analysis was performed using one-way ANOVA.
To further test effects of SNS in whole animals, we established an air-pouch assay to evaluate the effect of the compound, SNS, on LPS-stimulated cytokine production, following a procedure described previously (9). (See FIG. 14) Mice were pre-treated with PBS or SNS then challenged with LPS. The pouch wash-out was then analyzed for cytokine production using BD™ CBA Mouse Inflammatory Kit (BD Biosciences).

Assay [2] has as its system VEGF production in human cancer cell lines. Nature of the assay: VEGF production in human cancer cell lines (ELISA). Type of assay: cell-based. The method, then:
(A) Effect of SNS on VEGF production was analyzed in two cancer cell lines (both supernatants and cell lysates). (B) The supernatant from control and drug treated H460 cells was analyzed for the level of VEGF (pg/ml). C. […] Statistical analyses were performed using one-way ANOVA.
As discussed above, SNS and pancratastatin were originally synthesized as an anti-cancer agent. The inventors also examined the effect of SNS and pancratastatin on the production of VEGF in human cancer cell lines (FIG. 2). […] This analysis had been performed at least 3-5 times depending on the cell lines and drug used, with statistical analysis performed using one-way ANOVA.
A general note: In an ELISA, binding on a coated surface is turned into a signal by an enzyme label.

For assay [3], the system named is splenic myeloid cells (CD11b+), T and B cells. Nature of the assay: Splenic cell populations in SNS-treated rats (immunostaining, flow cytometry). Type of assay: in vivo, rat. The method, then: B. Summary of myeloid cells (CD11b+ cells) present in various treatment groups. The statistical analysis was performed using t-test (*, N=4). SMB-saline, saline treated, non-arthritic, mycobacterium challenged; SMB-SNS, SNS treated, non-arthritic, mycobacterium challenged; CFA-saline, arthritic Saline treated; CFA-No-RX, arthritic no treatment (stress control); CFA-SNS, SNS treated arthritic. The experimental groups are the same as those in FIGS. 4-7.
One of characteristics of inflammatory response is an elevation of myeloid cells. […] The cells were stained with fluorescence-conjugated antibodies specific to CD3, CD45R, and CD11b, followed by analyses using flow cytometry to reveal T, B, and myeloid cells, respectively. Lymphoid and myeloid cells were distinguished based on their differing forward and side scatter patterns.
Background: Flow cytometry measures light scatter and fluorescence of single cells or particles in a stream.

For `O=C1N[C@@H]2C(=C[C@H](O)[C@H]3OP(=O)(O)O[C@H]32)c2cc3c(c(O)c21)OCO3` [SNS, sodium narcistatin], the “MCP-1 in air-pouch wash-out” value in assay [1] (P=0.03) is reported as “significantly reduced”. Also, the “TNFα in air-pouch wash-out” value in assay [1] (P=0.04) is “significantly reduced”. Also, the “VEGF production, narcistatin compared with pancratistatin” value in assay [2] is reported as “comparable inhibition on VEGF production”. Further, the “effect on VEGF production/secretion” value in assay [2] (human cancer cell lines, ELISA) is reported as “significantly suppresses the secretion of VEGF”. The “splenic myeloid population (CD11b+ cells)” value in assay [3] (rats of the AA study, especially SNS/non-arthritic group) is “greatly reduced this myeloid population”. Moreover, in assay [3] (various treatment groups), the “numbers of splenic T and B lymphocytes” value was “comparable numbers of T and B lymphocytes”.
